# Source: paper PMC5057504, “Amyloid-β 1–24 C-terminal truncated fragment promotes amyloid-β 1–42 aggregate formation in the healthy brain” (Acta Neuropathologica Communications, 2016)
# Columns and labels:
# [1] = ATR-FTIR spectroscopy of peptide assemblies; type: physicochemical; details: 100 μM peptide (mix 50 μM each), incubated at 37 °C in PBS, 20 min to 6 days; hydrated film
# Experimental: The in vitro aggregation of Aβ samples was monitored by ThT assay (Fig. 6a–c). ThT fluorescence emission was recorded at different incubation times at 37 °C in physiological buffer. […] Further, we recorded the emission fluorescence spectra of the samples incubated for 96 h at 37 °C after tyrosine excitation at 270 nm, which is also able to produce ThT fluorescence. […] The secondary structures of the peptide assemblies were also investigated by Fourier transform infrared (FTIR) spectroscopy in attenuated total reflection (ATR) (Fig. 6d). […] During incubation at 37 °C of H-Aβ42, this component increased in intensity while that at ~1695 cm^−1 decreased (Fig. 6d). These spectral changes have been already observed in the fibrillogenesis of Aβ peptides and of other proteins, and assigned to the conformational conversion towards fibrillar structures with a parallel orientation of the intermolecular β-sheets. […]
# For the ATR-FTIR measurements, 2 μL of Aβ42 (at 100 μM concentration), of Aβ24 (at 100 μM concentration), or of the equimolar mixture of the two peptides (at 50 μM concentration each) were deposed on the single reflection diamond element of the ATR device (Quest, Specac, UK). Spectra were recorded after solvent evaporation to allow the formation of an hydrated film as previously described. […]
# wt mice brain = experiment: Intracranial injection in wt mice: amyloid aggregate deposition (6E10 DAB, Congo red, ThT staining); type: in vivo, mouse; details: for ThT-positive aggregates in brain sections: 2.5 months after i.c. injection; for 6E10-positive aggregates in brain, 6 months after injection: i.c. injection of oligomeric peptide, 6E10 followed by HRP
# Experimental: Mice were anesthetized and perfused with 0.9 % saline, followed by 4 % PFA. The 30 μm cryosections of brain were blocked in PBS containing 10 % goat serum and 0.1 % Triton X-100 for 1 h at room temperature before being incubated overnight at 4 °C with primary antibodies. The following day, the slides were rinsed in PBS and incubated at room temperature for 1 h with secondary antibody. The slides were processed using the ABC detection kit (Vector Laboratories). […] Immunofluorescence and ThT staining were performed on brain sections. Brain slices were washed three times in PBS and incubated for 1 h at room temperature in blocking solution (3 % BSA). Subsequently, the slides were washed 3 times and incubated overnight with specific antibodies. The next day, sections were washed in PBS and incubated for 2 h at room temperature with specific fluorochrome-conjugated secondary antibodies diluted in 3 % BSA in the dark. ThT solution was prepared as described above. Final solution was added to free floating slides for 1 min and very quickly washed with 80 % methanol followed by 3 washes with distilled water. Images were acquired by Virtual Slides microscope (VS120, Olympus). For quantification, both diffuse-plaques and dense-core plaques were considered, as described in [92]. Small dots and deposits at the slice edge were not counted. The entire surface of the slice was examined. For congo red histological staining, slices were air-dried on glass overnight, then stained with a 0.2 % congo red solution according to [93]. Specimens were acquired by transmittance polarized light microscopy, FITCH filtered epifluorescence. For quantification, bright field images were analyzed by color segmentation plugin-ImageJ software (NIH, Bethesda, MD). The entire area of deposits was considered.
# TNF-alpha = TNF-alpha ELISA in serum and brain of intracranially injected wt mice; type: in vivo, mouse; details: wt mice 2.5 months after i.c. injection
# Experimental: Stereotaxic intracranial injections in mice brains were made under a mixture of ketamine (100 mg/kg) and xylazine (10 mg/kg) anesthesia. After surgical exposure of dura mater, both the bregma and the skull surface served as the stereotaxic zero points. Using a Hamilton syringe, 4 μL of H-Aβ or vehicle (vehicle consists of physiological buffer−50 mM NaPi, 100 mM NaCl pH 7.4−) were injected into the neocortex (AP 1 mm, ML 2 mm, DV−2 mm) with a speed of 1.5 μL/min, the needle was kept in place for an additional minute before it was slowly drawn out. For each experiment 4 pmol of H-Aβ42, 4 pmol of H-Aβ24 and 2 pmol of H-Aβ42 plus 2 pmol of H-Aβ24 for the mix condition were injected, as described in [70, 90]. Different conditions were used for specific experiments as specified in the text. After suturing the incision, mice were maintained on a warm pad until recovery from the anesthesia, then returned to their cages.
# wt mice = experiment: Behavioral tests (open field, social interaction, novel object recognition) after intracranial injection; type: in vivo, mouse; details: wt mice i.c. injected, compared with vehicle and age matched APP/PS1 mice
# Experimental: Mice were placed in a multi-unit open field maze (ViewPoint instruments) with field chamber (25 cm long and 25 cm wide), and activity was recorded using ViewPoint video tracking software. Each quadrant was digitally divided into a peripheral and a central region using ViewPoint video tracking software. The central quadrants are collectively referred to as the center zone and peripheral quadrants are collectively referred to as the peripheral zone. Data were collected continually for 30 min and the distance traveled (cm), velocity (cm/s), and the distance traveled in the center zone versus the peripheral zone were all recorded and scored automatically. In the open field task ambulatory movements (valued as distance traveled and movement speeds) and anxiety-like behaviors (as the as distance traveled in the center zone versus the peripheral zone) can be assessed in response to a novel environment.
# The social interaction test was used to measure how mice respond to a social partner during a 5-min test following isolation housing. Since isolation housing potentiates expression of innate territorial defensive responses, in this test we evaluated the reaction of mice to the presence of a new animal in free conditions in the same arena. […]
# The test apparatus consisted of an open field box measuring 50 cm × 25 cm and all sessions were video-recorded. […]
# murine Aβ = biological target: T1, murine Aβ (Mus musculus, UniProt P12023); experiment: Immunoblot of brain homogenate fractions with murine-Aβ-specific antibody m3.2; type: in vivo; details: wt mice analyzed 4 months after i.c. injection; supernatant and pellet
# T1 construct: co-aggregation of the injected peptide and endogenously produced mouse Aβ42, retained in the brain; from tissue; host or cells: brain homogenate (supernatant and pellet fractions) of injected wild-type mice
# T1 sequence (P12023 672-713 limits assumed): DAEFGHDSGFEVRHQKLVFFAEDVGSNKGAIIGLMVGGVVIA
# Experimental: Animals were anesthetized and perfused with PBS before brains were removed, weighted and homogeneted in a mild hypotonic buffer (50 mM Tris pH 8, 150 mM NaCl, 5 mM EDTA supplemented with phosphatase and protease inhibitor, EDTA-free, Roche). Supernatants were then centrifuged for 1 h at 3000 × g to pellet insoluble material, including insoluble Aβ species. Samples were either frozen on dry ice or LDS sample buffer (Invitrogen) containg 5 % β-mercaptoethanol was immediately added. Pellets were directly resuspended in 20 μl of LDS sample buffer. 10 μl sample were loaded onto a Bolt 4–12 % Bis-Tris Plus Gels (Thermo Fisher) for Western Blot evaluation. Samples were separated using MES buffer and transferred onto a […] nitrocellulose membrane (Bio-Rad). Membranes were washed in TBS-Tween (150 mM NaCl, 50 mM Tris and 0.1 % (v/v) Tween-20) and incubated for 45 min at room temperature in blocking solution (5 % milk or 2.5 % serum bovine albumin in TBST). Membranes were subsequently probed overnight at 4 °C with primary antibodies diluted in TBS-T buffer. Membranes were washed extensively and incubated for 45 min at room temperature with horseradish peroxidase-conjugated (HRP) secondary antibody diluted in TBST buffer. Antibody-specific signals were detected using enhanced chemiluminescence reagents (Clarity Western ECL substrate, Bio-Rad).
# Experimental for bEnd.3 cells: (ATCC® CRL2299™) were used as a representative BBB model. bEnd.3 cells were cultured at 37 °C, 5 % CO2/saturated humidity in DMEM supplemented with 10 % heat-inactivated fetal bovine serum (FBS), 1 % penicillin-streptomycin.
# bEnd.3 cells were seeded at a concentration of 30000 cells/cm^2 onto geltrex-coated (thin layer; Gibco) transwell inserts (polycarbonate, 12 mm diameter, 3 μm pore size; Costar) until a monolayer was established.
# To assess Aβ42 exchange across the BBB model, bEnd.3 cells were cultured upside-down on a transwells system as described above, until steady-state TEER had been reached. […] The level of fluorescence in the media collected was measured for 488-Aβ42 (λex = 503 nm and λem = 528 nm) or for FAM-Aβ42 (λex = 492 nm and λem = 518 nm) using a Synergy™ H4 Hybrid Multi-Mode Microplate Reader (BioTek). Relative fluorescence units were converted to concentration according to prepared standard, and were corrected for background fluorescence. […] Briefly, Aβ42 volume cleared (ΔVc) was calculated using the equation ΔVc = Clower × Vlower/Cupper, where Cupper and Clower are fluorescently-labeled Aβ42 concentrations in the donor and receiving compartments, respectively, and Vlower is the volume on the basolateral side. […] Permeability coefficients (P) were calculated by dividing against the surface area of the filter (1.12 cm^2). […]
# Experimental for primary microglia: Primary microglia were obtained from mixed cultures prepared from the cerebral cortex of mice at the postnatal day 1 (P1-3). Microglia cells were isolated by shaking flasks for 45 min at 230 rpm at day 10 after plating. Cells were then seeded on poly-L-ornithine (Sigma) pre-coated wells at the density of 1,5×10^5 cell/mL in DMEM containing 20 % heat-inactivated fetal bovine serum (FBS) and incubated at 37 ° C in a humidified atmosphere of 5 % CO2 and 95 % air. Where indicated, cells were pre-treated for 45 min with protease inhibitors and EDTA 2.5 mM (Roche) which were directly added to the cell culture medium. […] When not differently indicated, for in vitro experiments microglia were treated with H-Aβ42 400 nM.
# Aliquots of supernatant samples (200 μL) were loaded on nitrocellulose membrane Trans-Blot Transfer Medium (0.22 μm, Bio-Rad), by vacuum deposition on the Bio-Dot SF blotting apparatus (Bio-Rad). Serial dilution curves of Aβ42 synthetic protein were preliminarily run to obtain non-saturating condition of immunodetection. DB dots images were analysed by Image Lab™ software (Bio-Rad).
# Aβ42 levels were determined using specific ELISA kit (Amyloid-beta (x-42) ELISA IBL, International) following manufacturer’s instructions. Briefly, 100 μL of sample was added into the pre-coated plate and was incubated overnight at 4 °C. After washing each well of the pre-coated plate, 100 μL of labeled antibody solution was added and the mixture was incubated for 1 h at 4 °C in the dark. After washing, chromogen was added and the mixture was incubated for 30 min at room temperature in the dark. After the addition of stop solution, the resulting color was assayed at 450 nm using a microplate absorbance reader (Synergy H4 Synergy™ H4 Microplate Reader, BioTek).
Substance,ATR-FTIR Amide I band (secondary structure of the assemblies) [1],ThT-positive aggregates in brain sections (wt mice brain),"6E10-positive aggregates in brain, 6 months after injection (wt mice brain; 4 pmol (mix 2 + 2 pmol))","6E10-positive aggregates in brain, 2.5 months after injection (wt mice brain; i.c. injection, 4 pmol (mix 2 + 2 pmol))",TNF-alpha levels in serum and brains (TNF-alpha),"Behavioral phenotype (open field, sociality task, NOR) (wt mice)",m3.2 positive bands (murine Aβ) in brain homogenate fractions (murine Aβ),Effect of H-Aβ24 on the diffusion of fluorescently labeled scrambled H-Aβ42 (bEnd.3 cells),"H-Aβ42 apical-to-basolateral passage when pre-incubated with H-Aβ24, dot blot (bEnd.3 cells)","Internalization by microglia (primary microglia; primary microglia, 1 μM, 3 h of treatment)","Extracellular Aβ42 in microglia medium, ELISA with capture antibody 6E10 (N-terminal), detection 4G8 (primary microglia)","Extracellular Aβ42 in microglia medium, ELISA with capture antibody against the C-terminal domain (primary microglia)","Extracellular Aβ42 in microglia medium, dot blot with C-terminal anti-Aβ42 (primary microglia)"
synthetic human Aβ1-24 peptide [H-Aβ24],two main peaks at ~1695 cm^−1 and ~1628 cm^−1,ThT-positive aggregates were detected,induced the formation of aggregates,already detectable,significant increase,cognitive defects comparable to APP/PS1 mice,presence of m3.2 positive bands,No effect,decreased amount of H-Aβ42,,,,
HiLyte Fluor™ 488-labeled Beta-Amyloid (1–42) [488-conjugated H-Aβ42],,,,,,,,,,efficiently internalized,,,
Synthetic human Aβ1–42 [H-Aβ42],higher intensity of the ~1628 cm^−1 peak,only ThT-positive blood vessels,did not cause Aβ deposition,,much less,some behavioral alterations,,,,,lack of changes,significant decrease,reduction of extracellular Aβ42
